From PubChem BioAssay AID859 (Vanderbilt High Throughput Screening Facility, 2007)

The compounds below were run against Muscarinic acetylcholine receptor M1 (Rattus norvegicus) (UniProt P08482) (assay: M1 inhibitors against agonist EC80 response – cell-based, calcium fluorescence, dose response (AID 859)). Settings: M1-expressing cells, antagonist mode vs EC80.
Muscarinic acetylcholine receptor M1 (Rattus norvegicus), sequence (P08482 whole entry, looked up): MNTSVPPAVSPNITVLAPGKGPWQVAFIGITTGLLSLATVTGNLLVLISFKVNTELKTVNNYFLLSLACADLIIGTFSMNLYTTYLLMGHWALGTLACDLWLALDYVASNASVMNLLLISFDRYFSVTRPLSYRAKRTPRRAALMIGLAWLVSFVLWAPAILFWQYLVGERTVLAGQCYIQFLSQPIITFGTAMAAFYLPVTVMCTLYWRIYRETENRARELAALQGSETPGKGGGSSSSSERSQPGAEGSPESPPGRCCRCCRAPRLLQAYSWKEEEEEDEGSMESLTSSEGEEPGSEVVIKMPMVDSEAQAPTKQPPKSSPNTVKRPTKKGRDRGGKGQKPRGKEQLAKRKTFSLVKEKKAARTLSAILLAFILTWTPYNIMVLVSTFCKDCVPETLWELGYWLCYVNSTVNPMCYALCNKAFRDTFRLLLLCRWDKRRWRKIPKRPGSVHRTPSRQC

Row | Compound | IC50 [nM]
1 | CN(C)CCOC(=O)C(c1ccccc1)C1(O)CCCC1 (stereo unspecified) | 25.7
2 | Cc1nc2c(o1)CCc1ccccc1C2N1CCN(C)CC1 (stereo unspecified) | 46.4
3 | CCC(C)N(CCNC(=O)CC1Oc2ccc(C)cc2NC1=O)C1CCCCC1 (stereo unspecified) | 1000
4 | CN(C)CCC=C1c2ccccc2CCc2ccccc21 | 637
5 | Cc1ccc2nc(NC3=NCN(CCN4CCOCC4)CN3)nc(C)c2c1 | 2.77
6 | CN1CCC(OC(=O)C2c3ccccc3Oc3ccccc32)CC1 | 9.27
7 | c1ccc(-c2cc(-c3nnc4sc(-c5ccccn5)nn34)[nH]n2)cc1 | 414
8 | CCN1C(=O)/C(=C\N2CCCCCC2)SC1=S | 438
9 | C=CCSc1nnc2c(n1)OC(c1cccnc1)N(C(C)=O)c1ccccc1-2 (stereo unspecified) | 190
10 | O=C(CN1CCCC(O)C1)N1c2ccccc2Sc2ccc(C(F)(F)F)cc21 (stereo unspecified) | 766
11 | CN1CCN(CCC(C#N)(c2ccccc2)c2ccccc2)CC1 | 395
12 | CCOC(=O)Nc1ccc2c(c1)N(C(=O)N1CCN(C)CC1)c1ccccc1S2 | 1410
13 | CN1CCN(C2=Nc3ccccc3Oc3ccc(Cl)cc32)CC1 | 1210
14 | CCN(CCCCOC(=O)c1ccc(OC)c(OC)c1)C(C)Cc1ccc(OC)cc1 (stereo unspecified) | 1160
15 | CC[N+]1(C)CCCC(OC(=O)C(O)(c2ccccc2)c2ccccc2)C1 (stereo unspecified) | 15.9
16 | O=C1CC(N2CCN(C/C=C/c3ccccc3)CC2)C(=O)N1Cc1cccs1 (stereo unspecified) | 846
17 | OC(CCN1CCCCC1)(c1ccccc1)c1ccccc1 | 58
18 | OC(CCN1CCCC1)(c1ccccc1)C1CCCCC1 (stereo unspecified) | 116

Row | Compound | IC50 [nM]
19 | CN(C)CCCOC(=O)C1c2ccccc2Oc2ccccc21 | 63.7
20 | CN1CCCN=C1COC(=O)C(O)(c1ccccc1)C1CCCCC1 (stereo unspecified) | 12.6
21 | Cn1cc(CN2CCN(c3ccccc3)CC2)c2ccccc21 | 226
22 | CCOc1nc(C#N)nc(N2CCCCC2)n1 | 1350
23 | CC1CCN(Cc2ccc(NC(=O)CC3Oc4ccccc4NC3=O)cc2)CC1 (stereo unspecified) | 234
24 | O=C(OCCN1CCCC1)C1(c2ccccc2)CCCC1 | 182
25 | Clc1ccc(OCc2nnc(SCCN3CCCCC3)n2Cc2ccco2)cc1 | 1400
26 | COC(=O)Nc1ccc2c(c1)N(C(=O)CCN1CCOCC1)c1ccccc1S2 | 1060
27 | O=C1CC(N2CCN(c3ccc(S(=O)(=O)N4CCOCC4)cc3)CC2)C(=O)N1Cc1ccccc1 (stereo unspecified) | 777
28 | Cc1c(C(=O)OC(C)CCN(C)C)oc2ccccc12 (stereo unspecified) | 681
29 | CCCC(CCC)C(=O)OC1C[C@H]2CC[C@@H](C1)[N+]2(C)C (stereo partly specified) | 302
30 | Cc1ccc2c(c1)NC(=O)C(CC(=O)Nc1ccc(CN3CCC(C)CC3)cc1)O2 (stereo unspecified) | 290
31 | CCN1CCN(Cc2cc(=O)oc3cc(C)cc(C)c23)CC1 | 974
32 | CNCCCC1c2ccccc2C=Cc2ccccc21 | 1260
33 | Cc1cccc(Cn2c(Sc3nc(C)cs3)nc3c2c(=O)[nH]c(=O)n3C)c1 | 20.2
34 | Cc1onc(-c2ccccc2Cl)c1C(=O)Nc1ccc(-c2nnc3n2CCCCC3)cc1 | 491
35 | CCN(CC)CCOC(=O)C(c1ccccc1)c1ccccc1 | 327
36 | O=C(CN1CCN(CCOCCO)CC1)N1c2ccccc2Sc2ccc(Cl)cc21 | 1030
